Data from patent US20260272908A1 (VANDERBILT UNIVERSITY, priority 2023, published 2026).

Assays:
Wnt-target genes = test: Real-time PCR for Wnt-target genes in Meta4 organoids; assay type: cell-based, mouse; settings: pyrvinium 100 nM
Description: Mean±SD. One-way ANOVA with Tukey's multiple comparisons.
Total RNAs were extracted from Meta3 or Meta4 organoids using the Trizol (Invitrogen) reagent. cDNAs were synthesized using iScript gDNA clear cDNA synthesis kit (Bio-Rad) and RT-PCR was performed using SsoAdvanced™ Universal SYBR Green supermix (Bio-Rad) and a CFX96 Real-Time PCR Detection System (Bio-Rad). GAPDH, a house keeping gene, was used to normalize gene expression levels. All reactions were performed in triplicate and relative gene expression levels were obtained by the comparative ΔΔCt method using CFX Maestro software (Bio-Rad).

Meta4 organoids = test: Meta4 dysplastic organoid growth and cell death (organoid diameter, phase-contrast, H&E, live/dead staining); assay type: cell-based, mouse; settings: pyrvinium 100 nM, SSTC3 0.2-1 μM, STAT3-IN-1 1 μM, Sttatic 2 μM, 3 days
Description: All experiments were repeated at least three times.
All experiments were performed at least in triplicate.

Mist1-Kras mice = test: Pyrvinium treatment of Mist1-Kras mice (metaplasia progression to dysplasia, gastric corpus histology and immunostaining); assay type: in vivo, mouse
Description: FIG. 5B schematically illustrates the H&E (top) and immunostaining for UEA1 (middle) and Ki-67 (bottom) in the wild type mice treated with Pyr for 2 weeks and Mist1-Kras mice treated with DMSO or Pyr for 1 or 2 weeks. FIG. 5C schematically illustrates the quantitation of Ki-67-positive cells per 20× field. […] Mean±standard deviation. Unpaired t-test or one-way ANOVA with Tukey's multiple comparisons. ns, not significant. *P<0.05. **P<0.01. ***P<0.001. Scale bar=100 μM.
To prepare formaldehyde-fixed paraffin-embedded (FFPE) organoids/spheres, Matrigel domes containing organoids/spheres were fixed in 4% PFA at room temperature for 30 min. The fixed organoids were embedded in HistoGel™ (Thermo Fisher Scientific) followed by a wash in PBS for 1 min and processed according to a standard histological protocol for paraffin embedding. Human tissues were fixed in 10% neutral buffered formalin (NBF) for 1 week at room temperature and mouse tumor tissues were fixed in 4% paraformaldehyde (PFA) solution overnight at 4° C. The fixed tissues were transferred into 70% ethanol and processed according to a standard histological protocol for subsequent paraffin embedding. Four to five micrometers of organoid/sphere or tissue paraffin sections were de-paraffinized in Histoclear solution (Electron Microscopy Services) and rehydrated through a series of ethanol (100%, 95% and 75%).
Antigen retrieval was performed using a pH 6 or pH 9 target retrieval solution (Dako) in a pressure cooker for 15 min and cooled for 1 hour. For immunofluorescence staining, each section was incubated in serum-free protein block solution (Dako) at room temperature for 1.5 hours. Primary antibodies were diluted in Antibody Diluent with background reducing components (Dako) and applied to sections, then incubated overnight at 4° C. Slides were washed in PBS for 5 min three times and secondary antibodies diluted in Antibody Diluent (Dako) were applied to each section. Sections were incubated at room temperature for 1 hour and PBS with Hoechst (1:5000) was applied to the sections for 5 min for nuclei counterstaining. Slides were washed in PBS for 5 min three times, mounted with ProLong™ Gold Antifade Mountant (ThermoFisher) and cover slipped. All fluorescence images were acquired using a Zeiss Axio Imager M2 microscope with Axiovision digital imaging system or scanned using the Aperio Versa 200 Fluorescent Slide Scanner (Leica) at the Vanderbilt Digital Histology Shared Resource. Preparation and overlay of fluorescence images were performed using Adobe Photoshop.
For immunohistochemical staining, sections were blocked in Peroxidase Blocking Solution (Vector Laboratories) at room temperature for 20 min followed by serum-free protein block solution (Dako) at room temperature for 1.5 hours. Primary antibodies were diluted in Antibody Diluent with background reducing components (Dako) and applied to sections, then incubated overnight at 4° C. Horseradish-peroxidase (HRP)-conjugated secondary antibodies were applied to sections and incubated for 15 min at room temperature followed by three washes in PBS for 5 min each. ImmPRESS polymer detection reagent and ImmPACT DAB substrate kits (Vector Laboratories) were used for antibody detection. Images were scanned on a SCN400 slide scanner (Leica) at 20× magnification.
One or two weeks after either DMSO or pyrvinium treatment, gastric mucosa in each group of mice was examined.

[1] = test system: STAT pathway / STAT3^Y705 phosphorylation; test: Phospho-antibody array in Meta3 and Meta4 organoids; assay type: cell-based, mouse; settings: pyrvinium, 3 days
Excerpt: Shading scale represents standardized log 2(FDR) values. […] Each square represents the signal ratio of the antibody against the unphosphorylated form of the site. FIG. 2E schematically illustrates how the STAT3 and DPPs in RAS/MAPK pathway is affected by Pyr treatment in precancerous organoids.
The top 10 protein candidates were selected, including p-MYC^T358, p-PKCtheta^T538, p-C-Raf^S43 p-STAT3^Y705, p-Pyk2^T580, p-Histone H3.1^S10, p-CREB^T100, p-Pyk2^T881, p-SRF^S77, and p-ERK1/2(p44/42)^T202(FIG. 2C-2D). As the organoids were derived from Mist1-Kras mice, it is not surprising that many proteins on the list are directly related to MAPK and PKC signaling pathways, with the exception of STAT3 (FIG. 2E).

[2] = Mist1-Kras mice 3 months after tamoxifen, pyrvinium 1 or 2 weeks
[3] = Mist1-Kras mice, pyrvinium 2 weeks

Cc1cc(/C=C/c2ccc3cc(N(C)C)ccc3[n+]2C)c(C)n1-c1ccccc1 [pyrvinium]
Wnt-target gene expression (Wnt-target genes; 6 or 24 hours): not downregulated
expression of Axin2, Cdca4, Rnf43, and Znrf3 (Wnt-target genes; 24 hours after treatment): increased
organoid size / growth (Meta4 organoids): reduction in organoid size
acid-secreting parietal cells in corpus mucosa (Mist1-Kras mice; [2]): gradually repopulated the corpus mucosa
number of hyperplastic foveolar glands with UEA1 and Ki-67 positive proliferating cells (Mist1-Kras mice; [2]): significantly decreased
CD4^+ T cell population (Mist1-Kras mice; [3]): dramatic decrease
CD8^+ T cells (Mist1-Kras mice; [3]): did not show a significant difference
CD19^+ B cells (Mist1-Kras mice; [3]): did not show a significant difference
CD163-positive M2-macrophages (Mist1-Kras mice; [3]): significantly decreased
NK cells (Mist1-Kras mice; [3]): significantly decreased
Pim-1 (immunostaining, gastric corpus) (Mist1-Kras mice; [3]): downregulation
number of dysplastic glands (Mist1-Kras mice; [3]): significant decrease
p-STAT3 (immunostaining, gastric corpus) (Mist1-Kras mice; [3]): downregulation
total number of CD3^+ T cells (Mist1-Kras mice; [3]): decreased
most prominent effect on protein phosphorylation (phospho-array) ([1]; Meta3 and Meta4): dephosphorylation of proteins related to the STAT pathway
STAT3^Y705 phosphorylation (phospho-array) [1]: loss
